Measurements published in publication PMC6199744, “Development of Chemical Proteomics for the Folateome and Analysis of the Kinetoplastid Folateome” (ACS Infectious Diseases, 2018).
Like-named read-outs stand apart in the source and are kept apart here.

Assays:
Format in all cases: binding
[1] = molecular target: T1, HeLa cell extract proteins (Homo sapiens, UniProt P23921)
T1 construct: endogenous in cells; host or cells: HeLa cell extract
T1 sequence (P23921 1-792): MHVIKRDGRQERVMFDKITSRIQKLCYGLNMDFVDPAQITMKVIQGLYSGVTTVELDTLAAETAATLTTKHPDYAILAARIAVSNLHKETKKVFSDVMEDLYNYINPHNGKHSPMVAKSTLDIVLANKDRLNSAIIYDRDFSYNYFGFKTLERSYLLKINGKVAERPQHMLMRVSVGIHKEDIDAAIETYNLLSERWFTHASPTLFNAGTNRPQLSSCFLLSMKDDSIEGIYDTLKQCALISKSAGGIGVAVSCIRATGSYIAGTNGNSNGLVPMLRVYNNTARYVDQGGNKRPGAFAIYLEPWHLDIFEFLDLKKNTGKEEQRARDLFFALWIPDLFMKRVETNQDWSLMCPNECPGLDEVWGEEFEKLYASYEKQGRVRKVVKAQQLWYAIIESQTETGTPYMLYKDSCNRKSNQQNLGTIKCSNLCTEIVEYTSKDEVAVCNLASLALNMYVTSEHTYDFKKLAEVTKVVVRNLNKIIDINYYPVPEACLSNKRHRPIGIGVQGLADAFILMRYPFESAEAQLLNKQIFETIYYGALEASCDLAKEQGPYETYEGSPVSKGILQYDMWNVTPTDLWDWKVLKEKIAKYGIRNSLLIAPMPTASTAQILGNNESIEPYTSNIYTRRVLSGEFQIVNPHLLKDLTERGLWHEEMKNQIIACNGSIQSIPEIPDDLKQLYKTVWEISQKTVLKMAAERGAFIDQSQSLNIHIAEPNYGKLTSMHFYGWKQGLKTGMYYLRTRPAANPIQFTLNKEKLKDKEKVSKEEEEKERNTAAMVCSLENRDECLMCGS

[2] = molecular target: T2, HeLa cell extract proteins (Homo sapiens, UniProt Q16658)
T2 construct: endogenous in cells; host or cells: HeLa cell extract

[3] = molecular target: T3, HeLa cell extract proteins (Homo sapiens, UniProt Q6JQN1)
T3 construct: endogenous in cells; host or cells: HeLa cell extract
T3 sequence (Q6JQN1 1-1059): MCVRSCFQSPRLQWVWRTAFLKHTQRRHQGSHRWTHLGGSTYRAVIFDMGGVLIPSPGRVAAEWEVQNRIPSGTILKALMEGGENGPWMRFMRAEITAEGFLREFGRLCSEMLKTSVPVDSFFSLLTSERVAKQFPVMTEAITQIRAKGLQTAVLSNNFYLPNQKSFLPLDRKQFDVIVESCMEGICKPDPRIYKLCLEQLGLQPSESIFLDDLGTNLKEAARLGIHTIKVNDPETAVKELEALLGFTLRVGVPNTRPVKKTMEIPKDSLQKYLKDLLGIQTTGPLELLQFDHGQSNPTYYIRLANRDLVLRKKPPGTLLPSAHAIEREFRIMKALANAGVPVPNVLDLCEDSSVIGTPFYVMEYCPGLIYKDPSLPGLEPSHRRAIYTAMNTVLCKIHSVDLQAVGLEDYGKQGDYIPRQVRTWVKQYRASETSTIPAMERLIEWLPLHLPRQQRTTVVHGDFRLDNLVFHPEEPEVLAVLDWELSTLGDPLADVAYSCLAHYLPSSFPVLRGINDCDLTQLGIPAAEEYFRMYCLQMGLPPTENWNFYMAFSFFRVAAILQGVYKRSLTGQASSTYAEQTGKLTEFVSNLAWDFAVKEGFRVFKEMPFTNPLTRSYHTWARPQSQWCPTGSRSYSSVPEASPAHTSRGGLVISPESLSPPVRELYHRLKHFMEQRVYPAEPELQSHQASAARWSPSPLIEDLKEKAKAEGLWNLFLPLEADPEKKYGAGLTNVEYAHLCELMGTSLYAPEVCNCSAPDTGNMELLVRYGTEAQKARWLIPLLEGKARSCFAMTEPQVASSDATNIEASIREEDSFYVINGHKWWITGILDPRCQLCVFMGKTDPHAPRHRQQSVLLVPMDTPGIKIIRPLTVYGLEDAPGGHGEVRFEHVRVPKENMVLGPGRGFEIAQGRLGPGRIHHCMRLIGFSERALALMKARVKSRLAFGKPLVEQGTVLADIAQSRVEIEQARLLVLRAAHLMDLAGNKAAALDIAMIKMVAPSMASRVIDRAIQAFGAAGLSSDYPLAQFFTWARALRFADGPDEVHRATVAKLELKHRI

[4] = molecular target: T4, HeLa cell extract proteins (Homo sapiens, UniProt Q8IYS1)
T4 construct: endogenous in cells; host or cells: HeLa cell extract
T4 sequence (Q8IYS1 1-436): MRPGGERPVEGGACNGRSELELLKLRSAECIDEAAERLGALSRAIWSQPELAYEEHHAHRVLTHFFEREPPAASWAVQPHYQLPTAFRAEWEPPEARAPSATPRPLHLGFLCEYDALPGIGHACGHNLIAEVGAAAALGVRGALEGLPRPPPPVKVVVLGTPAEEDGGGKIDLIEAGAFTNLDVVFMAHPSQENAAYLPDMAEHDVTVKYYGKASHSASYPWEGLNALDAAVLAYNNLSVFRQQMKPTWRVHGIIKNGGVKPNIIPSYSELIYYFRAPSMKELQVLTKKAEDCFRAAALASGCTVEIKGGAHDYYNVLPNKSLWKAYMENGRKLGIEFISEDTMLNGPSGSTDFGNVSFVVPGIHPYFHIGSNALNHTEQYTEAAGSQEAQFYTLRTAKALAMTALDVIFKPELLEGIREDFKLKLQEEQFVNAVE

[5] = molecular target: T5, HeLa cell extract proteins (Homo sapiens, UniProt Q8TCG1)
T5 construct: endogenous in cells; host or cells: HeLa cell extract

[6] = molecular target: T6, HeLa cell extract proteins (Homo sapiens, UniProt Q9H583)
T6 construct: endogenous in cells; host or cells: HeLa cell extract

[7] = captured protein KIAA1524, HeLa

T6 sequence (Q9H583 whole entry): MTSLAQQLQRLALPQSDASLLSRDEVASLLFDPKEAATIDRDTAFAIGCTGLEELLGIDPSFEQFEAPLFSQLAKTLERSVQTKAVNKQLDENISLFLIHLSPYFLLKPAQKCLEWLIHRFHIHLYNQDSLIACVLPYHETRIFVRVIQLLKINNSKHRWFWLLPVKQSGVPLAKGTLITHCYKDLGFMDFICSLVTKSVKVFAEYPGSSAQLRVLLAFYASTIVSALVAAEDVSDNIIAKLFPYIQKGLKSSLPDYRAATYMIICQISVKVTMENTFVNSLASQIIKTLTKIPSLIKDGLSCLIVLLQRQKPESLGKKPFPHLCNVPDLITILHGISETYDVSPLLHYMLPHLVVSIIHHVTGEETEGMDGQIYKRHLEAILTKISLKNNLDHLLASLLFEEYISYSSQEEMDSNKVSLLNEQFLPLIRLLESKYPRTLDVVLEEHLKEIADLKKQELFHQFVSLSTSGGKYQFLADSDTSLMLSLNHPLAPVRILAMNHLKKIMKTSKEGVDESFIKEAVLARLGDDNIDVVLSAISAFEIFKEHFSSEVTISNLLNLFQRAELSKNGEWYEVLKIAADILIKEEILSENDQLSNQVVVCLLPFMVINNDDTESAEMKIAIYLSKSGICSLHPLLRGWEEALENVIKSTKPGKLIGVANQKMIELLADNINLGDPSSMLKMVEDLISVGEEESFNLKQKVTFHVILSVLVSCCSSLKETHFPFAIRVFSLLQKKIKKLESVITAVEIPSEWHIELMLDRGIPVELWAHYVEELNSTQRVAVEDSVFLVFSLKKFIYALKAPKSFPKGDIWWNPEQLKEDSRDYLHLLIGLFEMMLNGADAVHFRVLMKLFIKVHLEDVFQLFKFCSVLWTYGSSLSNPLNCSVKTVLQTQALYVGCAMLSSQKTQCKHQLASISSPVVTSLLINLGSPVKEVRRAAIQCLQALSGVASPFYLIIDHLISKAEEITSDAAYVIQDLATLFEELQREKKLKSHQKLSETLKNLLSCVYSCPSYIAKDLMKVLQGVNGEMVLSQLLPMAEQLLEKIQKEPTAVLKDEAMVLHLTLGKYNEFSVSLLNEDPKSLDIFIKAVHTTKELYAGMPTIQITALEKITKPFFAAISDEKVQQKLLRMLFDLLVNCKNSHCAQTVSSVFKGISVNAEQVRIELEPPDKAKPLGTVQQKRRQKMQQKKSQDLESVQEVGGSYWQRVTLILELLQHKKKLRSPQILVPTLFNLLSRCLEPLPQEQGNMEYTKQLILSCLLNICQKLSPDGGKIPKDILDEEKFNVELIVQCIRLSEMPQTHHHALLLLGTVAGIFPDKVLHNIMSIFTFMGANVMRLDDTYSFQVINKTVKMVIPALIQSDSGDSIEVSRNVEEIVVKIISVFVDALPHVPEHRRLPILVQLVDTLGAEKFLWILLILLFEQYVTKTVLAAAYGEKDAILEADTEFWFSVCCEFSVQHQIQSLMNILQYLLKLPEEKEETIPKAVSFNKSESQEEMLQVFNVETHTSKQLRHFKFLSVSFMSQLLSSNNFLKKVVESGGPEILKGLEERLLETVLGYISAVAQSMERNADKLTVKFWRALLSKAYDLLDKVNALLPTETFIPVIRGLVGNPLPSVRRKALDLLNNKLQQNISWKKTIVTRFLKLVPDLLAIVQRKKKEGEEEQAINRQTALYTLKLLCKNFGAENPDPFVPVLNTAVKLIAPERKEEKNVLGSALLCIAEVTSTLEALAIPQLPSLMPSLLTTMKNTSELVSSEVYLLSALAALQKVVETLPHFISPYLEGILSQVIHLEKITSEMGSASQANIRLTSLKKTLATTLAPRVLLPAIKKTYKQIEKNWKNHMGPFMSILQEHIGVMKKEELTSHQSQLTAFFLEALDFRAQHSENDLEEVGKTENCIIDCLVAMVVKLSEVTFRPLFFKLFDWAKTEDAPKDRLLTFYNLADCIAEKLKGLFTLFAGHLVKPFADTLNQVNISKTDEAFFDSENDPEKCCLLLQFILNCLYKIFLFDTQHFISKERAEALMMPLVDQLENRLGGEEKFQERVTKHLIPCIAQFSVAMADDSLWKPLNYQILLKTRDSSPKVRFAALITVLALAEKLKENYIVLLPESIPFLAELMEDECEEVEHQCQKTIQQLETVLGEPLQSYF

| Compound | fold changes relative to vehicle control ([1]; protein RRM1, HeLa) | fold changes relative to vehicle control ([2]; protein FSCN1, HeLa) | fold changes relative to vehicle control ([3]; captured protein ACAD10, HeLa) | fold changes relative to vehicle control ([4]; captured protein PM20D2, HeLa) | fold changes relative to vehicle control [5, 7] | fold changes relative to vehicle control ([6]; HeLa, protein HEATR1) | fold changes relative to vehicle control [1] | fold changes relative to vehicle control [2] | fold changes relative to vehicle control [3] | fold changes relative to vehicle control [4] | fold changes relative to vehicle control [5] | fold changes relative to vehicle control [6] | fold changes relative to vehicle control ([1]; HeLa, protein RRM1) | fold changes relative to vehicle control ([3]; protein ACAD10, HeLa) | fold changes relative to vehicle control ([4]; HeLa, protein PM20D2) | fold changes relative to vehicle control ([5]; HeLa, protein KIAA1524) |
| --- | --- | --- | --- | --- | --- | --- | --- | --- | --- | --- | --- | --- | --- | --- | --- | --- |
| Nc1nc2cccc(-c3ccccc3)c2n1Cc1ccc(Cl)c(Cl)c1 [compound 3] | 0.89 | 0.96 | 0.94 | 1.1 | 0.98 | 1.12 | – | – | – | – | – | – | – | – | – | – |
| Nc1nc2[nH]cc(CCc3ccc(C(=O)N[C@@H](CCC(=O)O)C(=O)O)cc3)c2c(=O)[nH]1 [PTX, pemetrexed] | – | – | – | – | – | – | 1.05 | 1.08 | 0.71 | 1 | 0.87 | 0.98 | – | – | – | – |
| Nc1nc2c(c(=O)[nH]1)N(C=O)C(CNc1ccc(C(=O)N[C@@H](CCC(=O)O)C(=O)O)cc1)CN2 (stereo partly drawn) [LEU, leucovorin] | – | 0.95 | – | – | – | 0.94 | – | – | – | – | – | – | 0.99 | 0.96 | 0.9 | 0.87 |
| CCCCCCOc1cccc(Cc2cnc(N)nc2N)c1 [compound 2] | 1.29 | 1.96 | 0.84 | 0.9 | 1.09 | 1.2 | – | – | – | – | – | – | – | – | – | – |
| NCCOCCOCC(=O)Nc1nc2ncc(CNc3ccc(C(=O)NC(CCC(=O)O)C(=O)O)cc3)nc2c(=O)[nH]1 (stereo not drawn) [compound 6] | – | 1.42 | – | – | – | 1.09 | – | – | – | – | – | – | 1.06 | 0.76 | 1.05 | 0.94 |
| CCCCCCOc1ccc(Cc2cnc(N)nc2N)cc1 [compound 1] | 1.05 | 1.28 | 0.84 | 1.09 | 0.97 | 1.14 | – | – | – | – | – | – | – | – | – | – |
| NCCCNc1ccc(C(=O)NC(CCC(=O)O)C(=O)O)cc1 (stereo not drawn) [compound 7] | – | 0.78 | – | – | – | 1.04 | – | – | – | – | – | – | 0.96 | 0.95 | 0.89 | 0.89 |
